BindingDB's records for doi:10.1016/0014-2999(93)90722-t (Sanofi Recherche, 1993)
Values joined by “and” are separate entries in the source; they are usually repeats but may differ in a detail not shown here. Equal entries are not always repeated. Where a SMILES comes first, the peptide text is derived from it. [ ]: non-standard residue; d: D form. sY = N[C@@H](Cc1ccc(OS(=O)(=O)O)cc1)C(=O)O

Assays:
[1] = biological target: T1, Gastrin/cholecystokinin type B receptor (Rattus norvegicus, UniProt P30553)
T1 sequence (P30553 whole entry): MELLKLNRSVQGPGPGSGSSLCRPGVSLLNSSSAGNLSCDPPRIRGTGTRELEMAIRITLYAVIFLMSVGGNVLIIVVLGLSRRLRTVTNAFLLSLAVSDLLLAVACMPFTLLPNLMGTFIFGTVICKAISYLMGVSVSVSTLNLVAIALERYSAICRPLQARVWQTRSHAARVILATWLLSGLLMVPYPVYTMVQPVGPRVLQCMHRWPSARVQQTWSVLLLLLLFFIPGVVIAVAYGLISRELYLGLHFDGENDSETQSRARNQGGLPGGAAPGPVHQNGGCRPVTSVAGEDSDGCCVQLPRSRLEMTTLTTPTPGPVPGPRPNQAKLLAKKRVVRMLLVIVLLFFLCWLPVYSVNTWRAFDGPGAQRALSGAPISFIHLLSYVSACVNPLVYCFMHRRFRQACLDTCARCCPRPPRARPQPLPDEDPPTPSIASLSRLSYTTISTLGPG

Ki	Ki [1] [nM]	SMILES
489 nM and 2880 nM	0.58	O=C(O)Cn1c(C(=O)Nc2nc(-c3ccccc3Cl)cs2)cc2ccccc21 [CAS_122077]
0.62 nM		CC[C@H](C)[C@H](NC(=O)[C@H](CCCNC(=N)N)NC(=O)[C@H](Cc1c[nH]cn1)NC(=O)[C@H](CO)NC(=O)[C@@H]1CCCN1C(=O)[C@H](CC(=O)O)NC(=O)[C@H](CC(C)C)NC(=O)[C@H](CC(N)=O)NC(=O)[C@H](CCC(N)=O)NC(=O)[C@H](CC(C)C)NC(=O)[C@H](CC(N)=O)NC(=O)[C@H](CCCCN)NC(=O)[C@@H](NC(=O)[C@@H](NC(=O)[C@H](CO)NC(=O)[C@H](CCSC)NC(=O)[C@H](CCCNC(=N)N)NC(=O)CNC(=O)[C@H](CO)NC(=O)[C@@H]1CCCN1C(=O)[C@H](C)NC(=O)[C@@H](N)CCCCN)[C@@H](C)CC)C(C)C)C(=O)N[C@@H](CO)C(=O)N[C@@H](CC(=O)O)C(=O)N[C@@H](CCCNC(=N)N)C(=O)N[C@@H](CC(=O)O)C(=O)N[C@@H](Cc1ccc(OS(=O)(=O)O)cc1)C(=O)N[C@@H](CCSC)C(=O)NCC(=O)N[C@@H](Cc1c[nH]c2ccccc12)C(=O)N[C@@H](CCSC)C(=O)N[C@@H](CC(=O)O)C(=O)N[C@@H](Cc1ccccc1)C(N)=O [CHOLECYSTOKININ] (H-KAPSGRMSIVKNLQNLDPSHRISDRD[sY]MGWMDF-NH2)
24 nM		CSCC[C@H](NC(=O)[C@H](CC(C)C)NC(=O)[C@H](Cc1cnc[nH]1)NC(=O)CNC(=O)[C@@H](NC(=O)[C@H](C)NC(=O)[C@H](Cc1c[nH]c2ccccc12)NC(=O)[C@H](Cc1cnc[nH]1)NC(=O)[C@H](CC(N)=O)NC(=O)CN)C(C)C)C(N)=O [NSC_5486814]

SMILES	Ki	Ki [1] [nM]
CN1C(=O)[C@@H](NC(=O)c2cc3ccccc3[nH]2)N=C(c2ccccc2)c2ccccc21 [1H-Indole-2-carboxylic acid (1-methyl-2-oxo-5-phenyl-2,3-dihydro-1H-benzo[e][1,4]diazepin-3-yl)-amide: 0.1C4H10O. 0.15CH2Cl2]	275 nM and 195 nM	
